Holding throughout (format): cell-based
The target in assay [1] is T1, human TLR7 (Homo sapiens, UniProt Q9NYK1).
T1 construct: host or cells: HEK-Blue cells
T1 sequence (Q9NYK1 27-1049): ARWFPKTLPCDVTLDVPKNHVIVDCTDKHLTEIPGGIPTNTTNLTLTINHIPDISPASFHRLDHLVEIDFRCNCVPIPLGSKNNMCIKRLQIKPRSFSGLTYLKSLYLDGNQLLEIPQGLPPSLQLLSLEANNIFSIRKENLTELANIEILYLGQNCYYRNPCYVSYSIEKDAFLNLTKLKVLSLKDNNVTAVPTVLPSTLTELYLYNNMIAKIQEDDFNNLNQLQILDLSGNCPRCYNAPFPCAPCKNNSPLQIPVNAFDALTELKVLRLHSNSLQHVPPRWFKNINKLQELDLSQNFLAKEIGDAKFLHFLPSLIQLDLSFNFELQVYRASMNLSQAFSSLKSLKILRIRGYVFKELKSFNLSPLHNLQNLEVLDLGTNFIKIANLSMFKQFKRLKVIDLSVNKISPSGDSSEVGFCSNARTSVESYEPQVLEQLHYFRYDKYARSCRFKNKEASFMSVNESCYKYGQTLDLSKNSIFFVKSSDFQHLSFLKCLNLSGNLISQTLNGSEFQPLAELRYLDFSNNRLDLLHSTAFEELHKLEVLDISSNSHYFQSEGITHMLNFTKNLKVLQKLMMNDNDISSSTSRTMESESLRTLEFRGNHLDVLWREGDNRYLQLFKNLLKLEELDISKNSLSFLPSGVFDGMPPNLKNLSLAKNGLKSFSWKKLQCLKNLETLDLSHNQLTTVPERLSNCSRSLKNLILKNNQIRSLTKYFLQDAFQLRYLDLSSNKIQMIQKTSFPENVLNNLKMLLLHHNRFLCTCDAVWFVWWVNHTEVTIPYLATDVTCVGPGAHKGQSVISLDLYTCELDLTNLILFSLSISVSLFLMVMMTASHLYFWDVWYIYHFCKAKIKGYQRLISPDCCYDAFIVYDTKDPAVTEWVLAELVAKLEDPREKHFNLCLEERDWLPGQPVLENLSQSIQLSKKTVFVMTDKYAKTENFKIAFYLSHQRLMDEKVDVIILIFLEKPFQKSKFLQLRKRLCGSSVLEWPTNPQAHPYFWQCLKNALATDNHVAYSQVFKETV
The assay is described as follows: TLR7 inhibition reporter assay (HEK-Blue cells, SEAP reporter, gardiquimod stimulation). The settings on record: HEK-Blue cells overexpressing human TLR7, SEAP reporter, gardiquimod 7.5 μM; read-out: TLR7 IC50. In outline: (§1)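 Agonists used: gardiquimod 7.5 μM (TLR7), R848 15.9 μM (TLR8), ODN2006 5 nM (TLR9), added after 30 min room-temperature compound pre-treatment (0.05 nM–50 μM) of receptor-overexpressing HEK-Blue cells. SEAP reporter (NF-κB/AP-1 driven) read after 22 h at 37 °C; inhibition scaled between agonist+DMSO and reference-inhibitor wells.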
In general terms: A reporter such as luciferase makes a cellular process visible.

Assay [2] has as its target T2, human TLR8 (Homo sapiens, UniProt Q9NR97).
T2 construct: host or cells: HEK-Blue cells
T2 sequence (Q9NR97 27-1041): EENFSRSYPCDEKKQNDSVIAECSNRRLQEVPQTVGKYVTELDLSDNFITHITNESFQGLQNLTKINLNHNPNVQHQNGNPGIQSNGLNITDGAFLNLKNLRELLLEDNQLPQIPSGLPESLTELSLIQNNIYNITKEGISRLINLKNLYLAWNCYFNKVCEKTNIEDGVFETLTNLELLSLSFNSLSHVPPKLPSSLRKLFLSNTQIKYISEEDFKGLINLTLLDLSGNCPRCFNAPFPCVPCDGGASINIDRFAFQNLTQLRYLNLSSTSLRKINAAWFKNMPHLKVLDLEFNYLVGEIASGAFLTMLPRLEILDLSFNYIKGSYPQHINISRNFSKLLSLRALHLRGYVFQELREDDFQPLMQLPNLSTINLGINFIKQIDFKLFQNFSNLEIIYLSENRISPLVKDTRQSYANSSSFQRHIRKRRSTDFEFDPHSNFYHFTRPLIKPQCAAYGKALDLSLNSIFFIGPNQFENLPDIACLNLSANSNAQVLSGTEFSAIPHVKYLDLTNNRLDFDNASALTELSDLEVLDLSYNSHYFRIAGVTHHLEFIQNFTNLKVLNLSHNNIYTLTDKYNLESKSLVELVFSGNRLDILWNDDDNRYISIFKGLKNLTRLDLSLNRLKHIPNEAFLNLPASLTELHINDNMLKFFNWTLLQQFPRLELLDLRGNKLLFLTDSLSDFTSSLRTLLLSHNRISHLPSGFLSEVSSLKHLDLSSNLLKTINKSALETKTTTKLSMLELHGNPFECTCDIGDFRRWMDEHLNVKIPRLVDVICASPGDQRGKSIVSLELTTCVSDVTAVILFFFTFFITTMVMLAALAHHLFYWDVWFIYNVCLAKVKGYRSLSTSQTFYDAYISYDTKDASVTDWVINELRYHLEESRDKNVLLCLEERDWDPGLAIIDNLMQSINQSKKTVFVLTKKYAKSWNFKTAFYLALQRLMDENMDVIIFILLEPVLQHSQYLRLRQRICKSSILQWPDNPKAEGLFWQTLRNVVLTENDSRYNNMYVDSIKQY
The assay can be described thus: TLR8 inhibition reporter assay (HEK-Blue cells, SEAP reporter, R848 stimulation). The settings on record: HEK-Blue cells overexpressing human TLR8, SEAP reporter, R848 15.9 μM; read-out: TLR8 IC50. In outline:
as §1

The target of assay [3] is T3, human TLR9 (Homo sapiens, UniProt Q9NR96).
T3 construct: host or cells: HEK-Blue cells
T3 sequence (Q9NR96 26-1032): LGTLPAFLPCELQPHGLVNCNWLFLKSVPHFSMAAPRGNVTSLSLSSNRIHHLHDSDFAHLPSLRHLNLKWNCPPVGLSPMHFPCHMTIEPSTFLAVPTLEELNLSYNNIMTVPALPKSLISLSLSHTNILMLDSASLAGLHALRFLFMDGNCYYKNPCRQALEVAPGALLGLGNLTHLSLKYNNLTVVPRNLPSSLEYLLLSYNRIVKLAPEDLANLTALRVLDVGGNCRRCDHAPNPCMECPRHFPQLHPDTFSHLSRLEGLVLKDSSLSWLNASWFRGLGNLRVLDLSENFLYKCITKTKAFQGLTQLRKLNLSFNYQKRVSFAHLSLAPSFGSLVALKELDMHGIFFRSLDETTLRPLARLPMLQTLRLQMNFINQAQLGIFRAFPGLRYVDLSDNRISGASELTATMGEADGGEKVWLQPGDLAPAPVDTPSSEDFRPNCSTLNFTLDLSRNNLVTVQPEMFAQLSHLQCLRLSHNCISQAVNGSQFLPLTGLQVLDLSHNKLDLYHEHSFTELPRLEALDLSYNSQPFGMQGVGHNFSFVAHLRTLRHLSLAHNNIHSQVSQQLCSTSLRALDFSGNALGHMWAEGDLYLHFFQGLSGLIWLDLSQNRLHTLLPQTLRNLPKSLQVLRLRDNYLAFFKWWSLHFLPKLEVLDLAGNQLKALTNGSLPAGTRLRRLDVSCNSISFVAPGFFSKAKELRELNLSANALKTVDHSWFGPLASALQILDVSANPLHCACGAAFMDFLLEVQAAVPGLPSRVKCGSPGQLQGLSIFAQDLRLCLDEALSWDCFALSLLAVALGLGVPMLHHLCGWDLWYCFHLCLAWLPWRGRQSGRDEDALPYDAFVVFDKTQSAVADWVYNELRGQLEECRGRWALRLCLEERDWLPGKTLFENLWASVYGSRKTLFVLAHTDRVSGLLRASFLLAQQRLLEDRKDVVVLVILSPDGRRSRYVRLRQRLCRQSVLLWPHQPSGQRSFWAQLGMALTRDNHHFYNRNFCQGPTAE
The assay is described as follows: TLR9 inhibition reporter assay (HEK-Blue cells, SEAP reporter, ODN2006 stimulation). The settings on record: HEK-Blue cells overexpressing human TLR9, SEAP reporter, ODN2006 5 nM. In outline:
as §1

A word on the pIC50: it is the IC50 on a negative log10 scale, so that one unit is a factor of ten.

The structures appear in SMILES notation. pIC50: −log10 of the molar value.

Consider `Cc1c(-c2[nH]c3sc(C4CCN(C5CCOCC5)CC4)nc3c2C(C)C)cn2ncnc2c1C` [Example 46, 5-(7,8-dimethyl-[1,2,4]triazolo[1,5-a]pyridin-6-yl)-6-isopropyl-2-(1-(tetrahydro-2H-pyran-4-yl)piperidin-4-yl)-4H-pyrrolo[3,2-d]thiazole], for which the pIC50 was 9.24 in assay [1], 9.96 in assay [2] and 5.60 in assay [3].
For the compound `Cc1c(-c2[nH]c3sc(C4CCN(CC5(C)COC5)CC4)nc3c2C(C)C)cn2ncnc2c1C` [Example 47, 5-(7,8-dimethyl-[1,2,4]triazolo[1,5-a]pyridin-6-yl)-6-isopropyl-2-(1-((3-methyloxetan-3-yl)methyl)piperidin-4-yl)-4H-pyrrolo[3,2-d]thiazole], the pIC50 in assay [1] was 8.53; in assay [2] it was 9.25; in assay [3], 5.16.
For `Cc1c(-c2[nH]c3sc(C4CCN(CC5CCOCC5)CC4)nc3c2C(C)C)cn2ncnc2c1C` [Example 48, 5-(7,8-dimethyl-[1,2,4]triazolo[1,5-a]pyridin-6-yl)-6-isopropyl-2-(1-((tetrahydro-2H-pyran-4-yl)methyl)piperidin-4-yl)-4H-pyrrolo[3,2-d]thiazole], the results for the pIC50 in assay [1], in assay [2] and in assay [3] were 8.22, 8.36 and 4.71, respectively.
Take `Cc1c(-c2[nH]c3sc(C4CCN(C)CC4)nc3c2C(C)C)cn2ncnc2c1C` [Example 49, 5-(7,8-dimethyl-[1,2,4]triazolo[1,5-a]pyridin-6-yl)-6-isopropyl-2-(1-methylpiperidin-4-yl)-4H-pyrrolo[3,2-d] thiazole]: the pIC50 in assay [1] was 9.01; in assay [2], 9.32; in assay [3], 5.04.
Taken in the same sequence, the figures for `CCN1CCC(c2nc3c(C(C)C)c(-c4cn5ncnc5c(C)c4C)[nH]c3s2)CC1` [Example 50, 5-(7,8-dimethyl-[1,2,4]triazolo[1,5-a]pyridin-6-yl)-2-(1-ethylpiperidin-4-yl)-6-isopropyl-4H-pyrrolo[3,2-d]thiazole] were 8.90, 8.56 and 4.76.
For the compound `CCCN1CCC(c2nc3c(C(C)C)c(-c4cn5ncnc5c(C)c4C)[nH]c3s2)CC1` [Example 51, 5-(7,8-dimethyl-[1,2,4]triazolo[1,5-a]pyridin-6-yl)-6-isopropyl-2-(1-propylpiperidin-4-yl)-4H-pyrrolo[3,2-d]thiazole], the pIC50 in assay [1] was 8.80; in assay [2] it was 8.99; in assay [3], 5.06.
Taken in the same sequence, the figures for `Cc1c(-c2[nH]c3sc(C4CCN(CC(C)C)CC4)nc3c2C(C)C)cn2ncnc2c1C` [Example 52, 5-(7,8-dimethyl-[1,2,4]triazolo[1,5-a]pyridin-6-yl)-2-(1-isobutylpiperidin-4-yl)-6-isopropyl-4H-pyrrolo[3,2-d]thiazole] were 8.54, 8.37 and 4.75.
In the case of `Cc1c(-c2[nH]c3sc(C4CCN(CC5CC5)CC4)nc3c2C(C)C)cn2ncnc2c1C` [Example 53, 2-(1-(cyclopropylmethyl)piperidin-4-yl)-5-(7,8-dimethyl-[1,2,4]triazolo[1,5-a]pyridin-6-yl)-6-isopropyl-4H-pyrrolo[3,2-d]thiazole], the pIC50 in assay [1] was 9.03; in assay [2] it was 9.10; in assay [3] it was 5.29.
Taken in the same sequence, the figures for `CCC(CC)CN1CCC(c2nc3c(C(C)C)c(-c4cn5ncnc5c(C)c4C)[nH]c3s2)CC1` [Example 54, 5-(7,8-dimethyl-[1,2,4]triazolo[1,5-a]pyridin-6-yl)-2-(1-(2-ethylbutyl)piperidin-4-yl)-6-isopropyl-4H-pyrrolo[3,2-d]thiazole] were 8.96, 8.43 and 5.18.

(Values after patent US20230139171A1 (SITA Information Networking Computing UK Limited, priority 2019, published 2023).)
